# Reference: ChEMBL document CHEMBL3044624, “Cycloate, an inhibitor of fatty acid elongase, modulates the metabolism of very-long-side-chain alkylresorcinols in rye seedlings” (Pest Manag Sci, 2009)
# Legend:
# Secale cereale [1] = experiment: Change in alkylresorcinol homologue composition in dry shoots of green Secale cereale (rye) seedlings grown from compound-treated seeds at 29 +/-2 degC assessed as C21:1 content at 46 uM by GC/EI-MS analysis (reference value: 0.04 mg/kg dry weight); type: functional
# Secale cereale [2] = experiment: Toxicity against green Secale cereale (rye) seedlings assessed as dry biomass of seedling grown at 29 +/-2 degC at 46 uM measured at 5 days after compound-treated seed germination (reference value: 2.32 +/-0.05 g); type: organism-based; details: in vivo, 120 h
# Secale cereale [3] = experiment: Toxicity against green Secale cereale (rye) seedlings assessed as fresh biomass of seedling grown at 15 +/-2 degC at 46 uM measured at 5 days after compound-treated seed germination (reference value: 10.70 +/-0.28 g); type: organism-based; details: in vivo, 120 h
# Secale cereale [4] = experiment: Toxicity against green Secale cereale (rye) seedlings assessed as fresh biomass of seedling grown at 22 +/-2 degC at 46 uM measured at 5 days after compound-treated seed germination (reference value: 20.76 +/-0.81 g); type: organism-based; details: in vivo, 120 h
# Secale cereale [5] = experiment: Change in alkylresorcinol homologue composition in dry shoots of green Secale cereale (rye) seedlings grown from compound-treated seeds at 15 +/-2 degC assessed as C17:0 content at 46 uM by GC/EI-MS analysis (reference value: 1.46 mg/kg dry weight); type: functional
# Secale cereale [6] = experiment: Change in alkylresorcinol homologue composition in dry shoots of green Secale cereale (rye) seedlings grown from compound-treated seeds at 22 +/-2 degC assessed as C17:0 content at 46 uM by GC/EI-MS analysis (reference value: 0.93 mg/kg dry weight); type: functional
# Secale cereale [7] = experiment: Change in alkylresorcinol homologue composition in dry shoots of green Secale cereale (rye) seedlings grown from compound-treated seeds at 29 +/-2 degC assessed as C17:0 content at 46 uM by GC/EI-MS analysis (reference value: 0.75 mg/kg dry weight); type: functional
# Secale cereale [8] = experiment: Change in alkylresorcinol homologue composition in dry shoots of green Secale cereale (rye) seedlings grown from compound-treated seeds at 29 +/-2 degC assessed as C17:1 content at 46 uM by GC/EI-MS analysis (reference value: 0.08 mg/kg dry weight); type: functional
# Secale cereale [9] = experiment: Change in alkylresorcinol content in dry shoots of green Secale cereale (rye) seedlings grown from compound-treated seeds at 15 +/-2 degC at 46 uM by thin layer chromatography (reference value: 4.15 +/-0.02 mg/kg dry weight); type: functional
# Secale cereale [10] = experiment: Toxicity against etiolated Secale cereale (rye) seedlings assessed as dry biomass of seedling grown at 22 +/-2 degC at 46 uM measured at 5 days after compound-treated seed germination (reference value: 2.52 +/-0.05 g); type: organism-based; details: in vivo, 120 h
# Secale cereale [11] = experiment: Toxicity against etiolated Secale cereale (rye) seedlings assessed as fresh biomass of seedling grown at 22 +/-2 degC at 46 uM measured at 5 days after compound-treated seed germination (reference value: 21.43 +/-0.35 g); type: organism-based; details: in vivo, 120 h
# Secale cereale [12] = experiment: Change in alkylresorcinol homologue composition in dry shoots of etiolated Secale cereale (rye) seedlings grown from compound-treated seeds at 22 +/-2 degC assessed as C17:0 content at 46 uM by GC/EI-MS analysis (reference value: 1.35 mg/kg dry weight); type: functional
# Secale cereale [13] = experiment: Change in alkylresorcinol homologue composition in dry shoots of etiolated Secale cereale (rye) seedlings grown from compound-treated seeds at 29 +/-2 degC assessed as C17:0 content at 46 uM by GC/EI-MS analysis (reference value: 0.48 mg/kg dry weight); type: functional
# Secale cereale [14] = experiment: Change in alkylresorcinol homologue composition in dry shoots of etiolated Secale cereale (rye) seedlings grown from compound-treated seeds at 15 +/-2 degC assessed as C17:1 content at 46 uM by GC/EI-MS analysis (reference value: 0.51 mg/kg dry weight); type: functional
# Secale cereale [15] = experiment: Change in alkylresorcinol homologue composition in dry shoots of etiolated Secale cereale (rye) seedlings grown from compound-treated seeds at 22 +/-2 degC assessed as C17:1 content at 46 uM by GC/EI-MS analysis (reference value: 0.11 mg/kg dry weight); type: functional
# Secale cereale [16] = experiment: Change in alkylresorcinol homologue composition in dry shoots of etiolated Secale cereale (rye) seedlings grown from compound-treated seeds at 15 +/-2 degC assessed as C15:0 content at 46 uM by GC/EI-MS analysis (reference value: 0.43 mg/kg dry weight); type: functional
# Secale cereale [17] = experiment: Change in alkylresorcinol homologue composition in dry shoots of etiolated Secale cereale (rye) seedlings grown from compound-treated seeds at 22 +/-2 degC assessed as C15:0 content at 46 uM by GC/EI-MS analysis (reference value: 0.60 mg/kg dry weight); type: functional
# Secale cereale [18] = experiment: Change in alkylresorcinol homologue composition in dry shoots of etiolated Secale cereale (rye) seedlings grown from compound-treated seeds at 15 +/-2 degC assessed as C23:0 content at 46 uM by GC/EI-MS analysis (reference value: 0.33 mg/kg dry weight); type: functional
# Secale cereale [19] = experiment: Change in alkylresorcinol homologue composition in dry shoots of etiolated Secale cereale (rye) seedlings grown from compound-treated seeds at 29 +/-2 degC assessed as C23:0 content at 46 uM by GC/EI-MS analysis (reference value: 0.18 mg/kg dry weight); type: functional
# Secale cereale [20] = experiment: Change in alkylresorcinol homologue composition in dry shoots of etiolated Secale cereale (rye) seedlings grown from compound-treated seeds at 22 +/-2 degC assessed as C23:1 content at 46 uM by GC/EI-MS analysis (reference value: 0.04 mg/kg dry weight); type: functional
# Secale cereale [21] = experiment: Change in alkylresorcinol homologue composition in dry shoots of etiolated Secale cereale (rye) seedlings grown from compound-treated seeds at 15 +/-2 degC assessed as C21:1 content at 46 uM by GC/EI-MS analysis (reference value: 0.34 mg/kg dry weight); type: functional
# Secale cereale [22] = experiment: Change in alkylresorcinol content in dry shoots of etiolated Secale cereale (rye) seedlings grown from compound-treated seeds at 29 +/-2 degC at 46 uM by thin layer chromatography (reference value: 3.03 +/-0.02 mg/kg dry weight); type: functional
# Secale cereale [23] = experiment: Change in alkylresorcinol homologue composition in dry shoots of green Secale cereale (rye) seedlings grown from compound-treated seeds at 29 +/-2 degC assessed as C23:0 content at 46 uM by GC/EI-MS analysis (reference value: 0.08 mg/kg dry weight); type: functional
# Secale cereale [24] = experiment: Change in alkylresorcinol homologue composition in dry shoots of green Secale cereale (rye) seedlings grown from compound-treated seeds at 22 +/-2 degC assessed as C21:0 content at 46 uM by GC/EI-MS analysis (reference value: 0.23 mg/kg dry weight); type: functional
# Secale cereale [25] = experiment: Change in alkylresorcinol homologue composition in dry shoots of green Secale cereale (rye) seedlings grown from compound-treated seeds at 22 +/-2 degC assessed as C21:1 content at 46 uM by GC/EI-MS analysis (reference value: 0.09 mg/kg dry weight); type: functional
# Secale cereale [26] = experiment: Change in alkylresorcinol homologue composition in dry shoots of green Secale cereale (rye) seedlings grown from compound-treated seeds at 29 +/-2 degC assessed as C19:0 content at 46 uM by GC/EI-MS analysis (reference value: 0.48 mg/kg dry weight); type: functional
structure (smiles),measurement,setting,value
CCSC(=O)N(CC)C1CCCCC1 [CYCLOATE],Activity,Secale cereale [1],0.38 mg/kg
same,Activity,Secale cereale [2],1.64 g
same,Activity,Secale cereale [3],4.73 g
same,Activity,Secale cereale [4],10.63 g
same,Activity,Secale cereale [5],2.75 mg/kg
same,Activity,Secale cereale [6],1.32 mg/kg
same,Activity,Secale cereale [7],5.42 mg/kg
same,Activity,Secale cereale [8],0.75 mg/kg
same,Activity,Secale cereale [9],6.67 mg/kg
same,Activity,Secale cereale [10],1.5 g
same,Activity,Secale cereale [11],6.92 g
same,Activity,Secale cereale [12],0.83 mg/kg
same,Activity,Secale cereale [13],5.52 mg/kg
same,Activity,Secale cereale [14],1.25 mg/kg
same,Activity,Secale cereale [15],0.11 mg/kg
same,Activity,Secale cereale [16],1.01 mg/kg
same,Activity,Secale cereale [17],0.1 mg/kg
same,Activity,Secale cereale [18],0.17 mg/kg
same,Activity,Secale cereale [19],0.34 mg/kg
same,Activity,Secale cereale [20],0.03 mg/kg
same,Activity,Secale cereale [21],0.43 mg/kg
same,Activity,Secale cereale [22],14.34 mg/kg
same,Activity,Secale cereale [23],0.32 mg/kg
same,Activity,Secale cereale [24],0.05 mg/kg
same,Activity,Secale cereale [25],0.05 mg/kg
same,Activity,Secale cereale [26],3.88 mg/kg
